Experimental data as given in US7943611B2, “Imidazo[1,2-A]pyridin-3-yl-acetic acid hydrazides, processes, for their preparation and pharmaceutical uses thereof” (Ferrer International, S.A., priority 2006, dated 2011).

Legend:
[1] = target: T1, α1-subunit of the GABAA receptor (Rattus norvegicus, UniProt P62813); experiment: Ligand-binding assay, radiolabeled flumazenil competition, cerebellum membranes; details: 1 nM radiolabeled flumazenil; for inhibition at 10 µM: 10^−5 M test compound, read-out: % Inhib 10^−5M (affinity for the α1-subunit of the GABAA receptor); for inhibition at 0.1 µM: 10^−7 M test compound, read-out: % Inhib 10^−7M (affinity for the α1-subunit of the GABAA receptor)
T1 construct: the cerebellum (tissue that mostly contains α1-GABAA receptor); from tissue; host or cells: rat cerebellum membranes
Procedure: (§1) a) Ligand-Binding Assays. Determination of the Affinity of Test Compounds for α1- and α2-GABAA Receptor
(§2) Male Sprague-Dawley rats weighing 200-250 g at the time of experiment were used. After decapitation of the animal, the cerebellum (tissue that mostly contains α1-GABAA receptor) and spinal cord (tissue that mostly contains α2-GABAA receptor) were removed. The membranes were prepared according to the method by J. Lameh et al. (Prog. Neuro-Psychopharmacol. Biol. Psychiatry, 24, 979-991, 2000) and H. Noguchi et al. (Eur J Pharm, 434, 21-28, 2002) with slight modifications. Once the tissues weighed, they were suspended in 50 mM Tris.HCl (pH 7.4), 1:40 (v/v), or sucrose 0.32 M in the case of spinal cord, homogenized and then centrifuged at 20,000 g for 10 min at 7° C. The resulting pellet was resuspended under the same conditions and centrifuged again. The pellet was finally resuspended on a minimum volume and kept at −80° C. overnight. On the next day, the process was repeated until the final pellet was resuspended at a ratio of 1:10 (v/v) in the case of cerebellum and at a ratio of 1:5 (v/v) in the case of spinal cord.
(§3) Affinity was determined by competitive tests using radiolabeled flumazenil as ligand. The tests were performed according to the methods described by S. Arbilla et al. (Eur. J. Pharmacol., 130, 257-263, 1986); and Y. Wu et al. (Eur. J. Pharmacol., 278, 125-132, 1995) using 96-well microtiter plates. The membranes containing the study receptors, flumazenil (radiolabeling at a final concentration of 1 nM) and ascending concentrations of test compounds (in a total volume of 230 μl in 50 mM [pH 7.4] Tris.HCl buffer) were incubated. Simultaneously, the membranes were only incubated with the radiolabeled flumazenil (total binding, 100%) and in the presence of an elevated concentration of unradiolabeled flumazenil (non-specific binding, % estimation of radiolabeled ligand). The reactions started on adding the radiolabeled ligand followed by incubation for 60 minutes at 4° C. At the end of the incubation period, 200 μl of reaction were transferred to a multiscreen plate (Millipore) and filtered using a vacuum manifold and then washed three times with cold test buffer. The multiscreen plates were equipped with a GF/B filter that retained the membranes containing the receptors and the radiolabeled ligand which had been bound to the receptors. After washing, the plates were left till dry. Once dried, scintillation liquid was added and left under stirring overnight. The next day the plates were counted using a Perkin-Elmer Microbeta scintillation counter.
(§4) For analysis of the results the percentage of specific binding for every concentration of test compound was calculated as follows: % specific binding=(X−N/T−N)×100 where, • X: amount of bound ligand for every concentration of compound. • T: total binding, maximum amount bound to the radiolabeled ligand. • N: non-specific binding, amount of radiolabeled ligand bound in a non-specific way irrespective of the receptor used.
(§5) Every concentrations of compound were tested in triplicate and their mean values were used to determine the experimental values of % specific binding versus the concentration of compound. Affinity data are expressed as % inhibition at 10^−5 M and 10^−7 M concentrations.

[2] = test system: spontaneous motor activity in mice; experiment: In vivo predictive sedation-hypnosis test (spontaneous motor activity, traveled distance); set-up: species or system mouse; details: for % Motor activity inhibition: male CD1 mice, single equimolecular intraperitoneal dose, traveled distance vs control over 30 min (first 5 min discarded); for ID50 inhibiting spontaneous motor activity: dose-response curve, intraperitoneal
Procedure: b) In Vivo Determination of Predictive Sedative-Hypnotic Action
The in vivo effects of these compounds were assessed by a predictive sedation-hypnosis test in mice (D. J. Sanger et al., Eur. J. Pharmacol., 313, 35-42, 1996; and G. Griebel et al., Psychopharmacology, 146, 205-213, 1999).
Groups of 5-8 male CD1 mice, weighing 22-26 g at the time of test, were used. The test compounds were administered in single equimolecular intraperitoneal doses, suspended in 0.25% agar with one drop of Tween in a volume of 10 mL/kg. Control animals received the vehicle alone. Using a Smart System (Panlab, S. L., Spain) the traveled distance in cm was recorded for each mouse at 5 min intervals during a period of 30 minutes after dosing. The inhibition percentage traveled distance of treated animals versus control animals (the first 5 min were discarded) was calculated.

[3] = test system: α2-subunit of the GABAA receptor; experiment: Ligand-binding assay, radiolabeled flumazenil competition, spinal cord membranes; details: rat spinal cord membranes, 1 nM radiolabeled flumazenil; for % Inhib 10^−5M (affinity for the α2-subunit of the GABAA receptor): 10^−5 M test compound; for % Inhib 10^−7M (affinity for the α2-subunit of the GABAA receptor): 10^−7 M test compound
Procedure: as §1, §2, §3, §4, §5

Cc1ccc(-c2nc3ccc(C)cn3c2CC(=O)NN)cc1 [Example 3, (6-Methyl-2-p-tolyl-imidazo[1,2-a]pyridin-3-yl)-acetic Acid Hydrazide]
inhibition at 10 µM [1]: 98.7% | inhibition at 0.1 µM [1]: 55.9% | % Motor activity inhibition [2]: 92.03% | ID50 inhibiting spontaneous motor activity ([2]; mice): 1.9 µmol/kg | fold greater potency in inhibiting spontaneous motor activity compared to zolpidem ([2]; mice, from ID50 values): 2 fold

Cc1ccc(-c2nc3ccc(C)cn3c2CC(=O)N(C)N)cc1 [Example 6, (6-Methyl-2-p-tolyl-imidazo[1,2-a]pyridin-3-yl)-acetic Acid N-methyl-hydrazide]
% Inhib 10^−5M (affinity for the α2-subunit of the GABAA receptor) [3]: 71.6% | % Inhib 10^−7M (affinity for the α2-subunit of the GABAA receptor) [3]: 2.0% | inhibition at 10 µM [1]: 99% | inhibition at 0.1 µM [1]: 59.1% | % Motor activity inhibition [2]: 93.42%

Cc1ccc(-c2nc3ccc(C)cn3c2CC(=O)N/N=C/c2ccc(Cl)cc2)cc1 [Example 7, (6-Methyl-2-p-tolyl-imidazo[1,2-a]pyridin-3-yl)-acetic Acid (4-chlorobenzylidene)-hydrazide]
inhibition at 10 µM [1]: 46.1% | inhibition at 0.1 µM [1]: 0.9% | % Motor activity inhibition [2]: 25.05%

C/C=N/NC(=O)Cc1c(-c2ccc(C)cc2)nc2ccc(C)cn12 [Example 8, (6-Methyl-2-p-tolyl-imidazo[1,2-a]pyridin-3-yl)-acetic Acid Ethylidene-hydrazide]
% Inhib 10^−5M (affinity for the α2-subunit of the GABAA receptor) [3]: 88.6% | % Inhib 10^−7M (affinity for the α2-subunit of the GABAA receptor) [3]: 11.2% | inhibition at 10 µM [1]: 97.6% | inhibition at 0.1 µM [1]: 25.2% | % Motor activity inhibition [2]: 90.16%

CC(C)=NNC(=O)Cc1c(-c2ccc(C)cc2)nc2ccc(C)cn12 [Example 9, (6-Methyl-2-p-tolyl-imidazo[1,2-a]pyridin-3-yl)-acetic acid isopropylidene-hydrazide]
% Inhib 10^−5M (affinity for the α2-subunit of the GABAA receptor) [3]: 86.6% | % Inhib 10^−7M (affinity for the α2-subunit of the GABAA receptor) [3]: 21.9% | inhibition at 10 µM [1]: 98.5% | inhibition at 0.1 µM [1]: 24.2% | % Motor activity inhibition [2]: 92.03%

Cc1ccc(-c2nc3ccc(C)cn3c2CC(=O)N(C)C)cc1 [Zolpidem, N,N,6-trimethyl-2-p-tolylimidazo[1,2-a]pyridine-3-acetamide, reference compound]
% Inhib 10^−5M (affinity for the α2-subunit of the GABAA receptor) [3]: 74.1% | % Inhib 10^−7M (affinity for the α2-subunit of the GABAA receptor) [3]: 19.9% | inhibition at 10 µM [1]: 73.6% | % Motor activity inhibition [2]: 91.70% | ID50 inhibiting spontaneous motor activity ([2]; mice): 4.4 µmol/kg
